From patent US9382294B2, “Broad spectrum antibiotic compounds and use thereof” (Los Alamos National Security, LLC, priority 2013, dated 2016) come the findings set out here.

In brackets after ≈: the same amount, converted by molar mass. Counter-ions that a name gives are not always drawn. Like-named read-outs stand apart in the source and are kept apart here.

One data set concerns C. difficile ATCC 700057. In words: MIC broth dilution assay (Table 2). As to conditions: Clostridioides difficile. It counts as cell-based, Clostridium difficile. The procedure:
(§1) Stocks of test compounds and standards were diluted 1:100 to provide working stocks in each growth medium. For P. aeruginosa, S. enterica and S. aureus, eleven serial, one-half dilutions of the compounds and standards were prepared in 96-well polypropylene dilution blocks in cation-adjusted Mueller Hinton broth (CAMHB). The dilutions were transferred to 96-well assay plates. […] Bacterial suspensions were prepared and added to each well at a concentration of approximately 5×10^5 colony-forming-units per milliliter. […] At the completion of incubation the wells of each plate were evaluated visually for the presence of bacterial growth. The MIC was the concentration at which there was no growth. MICs against H. influenzae, S. pneumoniae and C. difficile were determined similarly, but dilutions were prepared directly in the 96-well assay plates and MIC parameters were as indicated below (Table 1). [table]

Another data set deals with P. aeruginosa ATCC 27853. In words: MIC broth dilution assay (Table 2). The data set is classed as cell-based. As to conditions: Pseudomonas aeruginosa, ATCC27853, CAMHB, 16-20 h, 35° C., read-out: Minimum inhibitory concentration (MIC). How it is done: (§2) Stocks of test compounds and standards were diluted 1:100 to provide working stocks in each growth medium. For P. aeruginosa, S. enterica and S. aureus, eleven serial, one-half dilutions of the compounds and standards were prepared in 96-well polypropylene dilution blocks in cation-adjusted Mueller Hinton broth (CAMHB). The dilutions were transferred to 96-well assay plates. […] Bacterial suspensions were prepared and added to each well at a concentration of approximately 5×10^5 colony-forming-units per milliliter. The inoculated plates were incubated for 16-20 hours at 35±1° C. At the completion of incubation the wells of each plate were evaluated visually for the presence of bacterial growth. The MIC was the concentration at which there was no growth.
On the technique in general: In broth dilution the organism is exposed to a series of concentrations in liquid medium.

The test system of data set [1] is S. enterica ATCC 14028. In words: MIC broth dilution assay (Table 2). It counts as cell-based. Conditions: Salmonella enterica, ATCC14028, CAMHB, 16-20 h, 35° C., read-out: Minimum inhibitory concentration (MIC). The procedure:
as §2

The next data set has as its system HeLa cells. The experiment in a line: in vitro cell toxicology assay. The data set is classed as cell-based, human. How it is done: (§3) In vitro cell toxicology assays were performed to evaluate the effect of Compound #1 on human cells. Compound #1, dissolved in DMSO, was added to vital cultures of HeLa cells and peripheral blood mononuclear cells (PMBC) one day after the cell cultures were started. For each cell line, pure DMSO (control #1), no DMSO (control #2) and Compound #1 in one times (T1-5 nM), five times (T5-25 nM) and ten times (T10-50 nM) of the bacteria-toxic concentration was added to the cell cultures for two sets each. All ten culture flasks per cell line (2×: T1, T5, T10, […]#2) were incubated under identical conditions and simple cell counts were performed on days two, four and six while replacing the cell culture medium to maintain the concentration of Compound #1.

The subject of data set [2] is peripheral blood mononuclear cells (PMBC). The experiment in a line: in vitro cell toxicology assay. Conditions: 5, 25, 50 nM. It counts as cell-based, human. The procedure:
as §3

The test system of a further data set is K. pneumoniae ATCC 43816. In words: MIC of more highly purified compounds (Table 3). It counts as cell-based. The text has this:
(§4) MIC was further evaluated using EtOAc extracts of more highly purified Compound #1 and Compound #2. MIC of these compounds was compared to ACHN-490 (Plazomicin; an aminoglycoside effective primarily against Gram-negative bacteria), Colistin (a polymyxin antibiotic effective against most Gram-negative bacilli), and Meropenem (an ultra broad-spectrum, beta-lactam antibiotic).

For data set [3], the system named is S. aureus (MRSA) ATCC 33591. In words: MIC of more highly purified compounds (Table 3). The data set is classed as cell-based. Conditions: EtOAc extracts of more highly purified compounds.
Description: as §4

In data set [4] the test system is S. pneumoniae ATCC 49619. In words: MIC of more highly purified compounds (Table 3). It counts as cell-based. As to conditions: Streptococcus pneumoniae, ATCC49619, EtOAc extracts of more highly purified compounds.
Description: as §4

For data set [5], the system named is H. influenzae ATCC 49247. In words: MIC of more highly purified compounds (Table 3). It counts as cell-based. Conditions: Haemophilus influenzae, ATCC49247, EtOAc extracts of more highly purified compounds.
Description: as §4

The subject of a further data set is C. difficile ATCC 70057. In words: MIC of more highly purified compounds (Table 3). The data set is classed as cell-based. As to conditions: Clostridioides difficile, ATCC70057, EtOAc extracts of more highly purified compounds.
Description: as §4

In the next data set the test system is A. baumannii ATCC 19606. In words: MIC of more highly purified compounds (Table 3). The data set is classed as cell-based.
Description: as §4

The test system of data set [6] is S. enterica ATCC 14028. The experiment in a line: MIC of more highly purified compounds (Table 3). It counts as cell-based.
Description: as §4

Another data set deals with E. coli K-12. The experiment in a line: bacterial growth inhibition assay (cellulose disks). The data set is classed as cell-based. As to conditions: 0.85 μg on 6 mm cellulose disk. The procedure: (§5) To evaluate the antibiotic properties of the compounds produced by the NRPS cluster, Compound #1 or Compound #2 (0.85 μg) was diluted in 2 μl DMSO and soaked onto 6 mm cellulose disks for a bacterial growth inhibition assay.

Data set [7] relates to Staphylococcus aureus (ATCC 2913). The data set is described as above. It counts as cell-based. Conditions: 0.85 μg on 6 mm cellulose disk. The procedure: as §5
The subject of data set [8] is Acinetobacter baumannii (ATCC 17904). Described as above. It counts as cell-based. As to conditions: 0.85 μg on 6 mm cellulose disk. The procedure:
as §5

A further data set has as its system E. coli (ATCC 25922). The description is as above. The data set is classed as cell-based. As to conditions: 0.85 μg on 6 mm cellulose disk. The procedure:
as §5

For the next data set, the system named is Bacillus subtilis PY79. The description is as above. The data set is classed as cell-based. As to conditions: 0.85 μg on 6 mm cellulose disk. The procedure:
as §5

Data set [9] relates to Listeria grayi (ATCC 19120). Described as above. It counts as cell-based. Conditions: 0.85 μg on 6 mm cellulose disk. The procedure:
as §5

Data set [10] concerns Pseudomonas putida (ATCC 11172). Described as above. It counts as cell-based. Conditions: 0.85 μg on 6 mm cellulose disk. The procedure: as §5
A short description of data set [11]: Maximum Tolerated Dose (MTD) study. It counts as in vivo. Conditions: CD-1 mice; subcutaneous 20, 40 or 80 mg/kg; observed 1 hour, 24 hours and 48 hours. How it is done:
MTD studies were performed for Compound #1, Compound #2 and Compound #3. CD-1 mice, 6-8 weeks of age, were used for these studies. Groups of three mice were injected subcutaneously with 20 mg/kg, 40 mg/kg or 80 mg/kg of Compound #1, Compound #2 or Compound #3 Animals were observed 1 hour, 24 hours and 48 hours after administration of compound.

Data set [12] is described as follows: radio-HPLC of C. thermocellum culture fed 14C-labelled amino acids (water solubility of metabolite). The data set is classed as physicochemical. Conditions: no new peak in radio-HPLC of culture. How it is done: C. thermocellum was grown anaerobically in cellulose-containing medium. ^14C-labelled amino acids (^14C-L-Asp, ^14C-L-Leu and ^14C-L-Ile) were added to the culture media and radio-HPLC was performed. […] The orange suspension was centrifuged, the liquid layer separated from the cells and the DMSO was removed under reduced pressure. The final yield from this process was 14.7 mg.

The subject of data set [13] is H. influenzae ATCC 49247. The experiment in a line: MIC broth dilution assay (Table 2). It counts as cell-based. Conditions: ATCC49247, Haemophilus Test Medium Broth, 20-24 h, read-out: Minimum inhibitory concentration (MIC). The procedure:
as §2, with “The inoculated plates were incubated for 16-20 hours at 35±1° C.” left out

Data set [14] concerns S. pneumoniae ATCC 49619. The experiment in a line: MIC broth dilution assay (Table 2). It counts as cell-based. As to conditions: Streptococcus pneumoniae, ATCC49619, CAMHB + LHB, 20-24 h, read-out: Minimum inhibitory concentration (MIC). How it is done: as §1
The mark [15] stands for this setting: Staphylococcus aureus, read-out: MIC.
Where [16] appears, read: Acinetobacter baumannii, ATCC19606, EtOAc extracts of more highly purified compounds, read-out: MIC.
Setting [17] is: Salmonella enterica, ATCC14028, EtOAc extracts of more highly purified compounds, read-out: MIC.
Where [18] appears, read: EtOAc extracts of more highly purified compounds.

`CN[C@H](CC(C)C)C(=O)N[C@H]1C(=O)N[C@@H](CC(N)=O)C(=O)N[C@H]2C(=O)N[C@H]3C(=O)N[C@H](C(=O)N[C@H](C(=O)O)c4cc(O)cc(O)c4-c4cc3ccc4O)[C@H](O)c3ccc(c(Cl)c3)Oc3cc2cc(c3O[C@@H]2O[C@H](CO)[C@@H](O)[C@H](O)[C@H]2O[C@H]2C[C@](C)(N)[C@H](O)[C@H](C)O2)Oc2ccc(cc2Cl)[C@H]1O` [VAN, vancomycin hydrochloride, reference compound]: the MIC in the data set on C. difficile ATCC 700057 (ATCC700057, read-out: Minimum inhibitory concentration (MIC)) was 0.25 µg/mL.
Take `CCC(C)C1N[C@@H]2OC[C@H](OC(=O)C(CC=O)NC1=O)[C@H](O[C@@H]1OC[C@@H](O)[C@H](O)[C@@H]1O)[C@@H]2O` (stereo partly shown) [Compound #1]: the MIC is above 128 µg/mL in the data set on P. aeruginosa ATCC 27853; above 128 µg/mL with S. enterica ATCC 14028 [1]; 8 µg/mL in the data set on K. pneumoniae ATCC 43816 (Klebsiella pneumoniae, ATCC43816, EtOAc extracts of more highly purified compounds, read-out: MIC); 16 µg/mL in data set [3] (setting [15]); 16 µg/mL in the data set on S. pneumoniae ATCC 49619 [4]; 0.5 µg/mL in the data set with H. influenzae ATCC 49247 [5]. Moreover, the MIC is 16 µg/mL in the data set with C. difficile ATCC 70057; 8 µg/mL in the data set with A. baumannii ATCC 19606 (setting [16]); 16 µg/mL in the data set on S. enterica ATCC 14028 [6] (setting [17]); 2 µg/mL (≈ 4.2 µM) in the data set with H. influenzae ATCC 49247 [13]; 32 µg/mL in the data set on C. difficile ATCC 700057 (ATCC700057, C. difficile ATCC 700057, Supplemented Brucella Broth + LHB, anaerobic, 46-48 h, read-out: Minimum inhibitory concentration (MIC)); 64 µg/mL with S. pneumoniae ATCC 49619 [14]. Further, the “changes in physical appearance of cell line” value is listed as “no changes in physical appearance” with HeLa cells (5, 25, 50 nM) and “no changes in physical appearance” in data set [2]. The pyrogenic reactions entry with HeLa cells (5, 25, 50 nM) is “No pyrogenic reactions”; in [2], “No pyrogenic reactions”. Further, the “variation of death rates, treated vs untreated cell cultures” value is “less than 5%” in the data set with HeLa cells (5, 25, 50 nM, cell counts on days two, four and six); “less than 5%” in [2] (cell counts on days two, four and six). Moreover, the proliferation rate entry in the data set with HeLa cells (T10 (50 nM)) was “slightly reduced”. The bacterial growth inhibition result (with E. coli K-12; in data set [7]; in data set [8]; in the data set with E. coli (ATCC 25922); in the data set with Bacillus subtilis PY79; in [9]) was “significantly inhibited bacterial growth” each time. Further, the bacterial growth inhibition result in data set [10] was “significantly inhibited bacterial growth”. Further, the “signs of illness (MTD study)” value in [11] was “No signs of illness”. In data set [12], the water solubility result was “water insoluble”.
Regarding `CN[C@@H]1[C@@H](O)[C@@H](O[C@@H]2[C@@H](O)[C@H](O[C@H]3OC(CNCCO)=CC[C@H]3N)[C@@H](N)C[C@H]2NC(=O)[C@@H](O)CCN)OC[C@]1(C)O` [ACHN-490, Plazomicin], the MIC in the data set with A. baumannii ATCC 19606 (setting [16]) was found to be 8 µg/mL.
Regarding `C[C@@H](O)[C@H]1C(=O)N2C(C(=O)O)=C(S[C@@H]3CN[C@H](C(=O)N(C)C)C3)[C@H](C)[C@H]12` [Meropenem], the values for the MIC (in data set [3] (setting [15]); in the data set with A. baumannii ATCC 19606 (setting [16]); in the data set with S. enterica ATCC 14028 [6] (setting [17])) were above 16 µg/mL, 1 µg/mL and above 16 µg/mL, respectively.
Consider Colistin, for which the MIC was 0.12 µg/mL in the data set with K. pneumoniae ATCC 43816 (setting [18]), 32 µg/mL in data set [3], above 32 µg/mL with A. baumannii ATCC 19606 (setting [18]) and above 32 µg/mL with S. enterica ATCC 14028 [6] (setting [18]).
